Source: BindingDB's records for doi:10.1016/j.bioorg.2016.05.009 (Birla Institute of Technology, 2016)

Target: Gag-Pol polyprotein (Human immunodeficiency virus type 1 group M subtype B (isolate HXB2), UniProt P04585)
Experiment: HIV-1 RT Colorimetric Assay
Method: The reaction mixture was set with template primer complex, RT enzyme and dNTPs in a lysis buffer with or without inhibitors. The reaction mixture was incubated at 37 °C for 1 h and then transferred to streptavidin-coated microtitre plate (MTP). The biotin-labeled dNTPs that were incorporated in the template due to activity ofRT, bound to streptavidin. The unbound dNTPs were washed using wash buffer and anti-DIG-POD was added to the MTP. The DIGlabeled dNTPs incorporated in the template were bound to an anti-DIG-POD antibody. The unbound anti-DIG-POD was washed again with washing buffer and the peroxide substrate (ABST) was added to the MTP. A colored reaction product was produced during the cleavage of the substrate catalyzed by a peroxide enzyme. The absorbance of the sample was determined as an optical density (OD) at 405 nm using a micro titer plate ELISA reader.

Row | SMILES | IC50 [µM]
1 | COc1ccc2c(c1)CCCN2CCC(=O)N1CCN(c2cccc(Cl)c2Cl)CC1 [1-(4-(2,3-dichlorophenyl)piperazin-1-yl)-3-(6-methoxy-3,4-dihydroquinolin-1(2H)-yl)propan-1-one (6o)] | 14.5
2 | COc1ccc2c(c1)CCCN2CCC(=O)N1CCN(c2ccccc2Cl)CC1 [1-(4-(2-chlorophenyl)piperazin-1-yl)-3-(6-methoxy-3,4-dihydroquinolin-1(2H)-yl)propan-1-one (6i)] | 32.9
3 | COc1ccc2c(c1)CCCN2CCC(=O)N1CCN(c2ccccc2F)CC1 [1-(4-(2-fluorophenyl)piperazin-1-yl)-3-(6-methoxy-3,4-dihydroquinolin-1(2H)-yl)propan-1-one (6g)] | 47.5
4 | COc1ccc2c(c1)CCCN2CCC(=O)N1CCN(c2ccc(F)cc2)CC1 [1-(4-(4-fluorophenyl)piperazin-1-yl)-3-(6-methoxy-3,4-dihydroquinolin-1(2H)-yl)propan-1-one (6h)] | 78.5
5 | COc1ccc2c(c1)CCCN2CCC(=O)N1CCN(c2ccccc2OC)CC1 [3-(6-methoxy-3,4-dihydroquinolin-1(2H)-yl)-1-(4-(2-methoxyphenyl)piperazin-1-yl)propan-1-one (6d)] | 52.8
6 | COc1ccc2c(c1)CCCN2CCC(=O)N1CCN(c2ccc([N+](=O)[O-])cc2)CC1 [3-(6-methoxy-3,4-dihydroquinolin-1(2H)-yl)-1-(4-(4-nitrophenyl)piperazin-1-yl)propan-1-one (6l)] | 82.7
7 | COc1ccc2c(c1)CCCN2CCC(=O)N1CCN(c2ccccn2)CC1 [3-(6-methoxy-3,4-dihydroquinolin-1(2H)-yl)-1-(4-(pyridin-2-yl)piperazin-1-yl)propan-1-one (6n)] | 48.6
8 | COc1ccc2c(c1)CCCN2CCC(=O)N1CCN(c2ccccc2C)CC1 [3-(6-methoxy-3,4-dihydroquinolin-1(2H)-yl)-1-(4-o-tolylpiperazin-1-yl)propan-1-one (6b)] | 12.5
9 | COc1ccc2c(c1)CCCN2CCC(=O)N1CCN(c2ccc(C)cc2)CC1 [3-(6-methoxy-3,4-dihydroquinolin-1(2H)-yl)-1-(4-p-tolylpiperazin-1-yl)propan-1-one (6c)] | 28.5
10 | COc1ccc2c(c1)CCCN2CCC(=O)N1CCN(c2ccccc2)CC1 [3-(6-methoxy-3,4-dihydroquinolin-1(2H)-yl)-1-(4-phenylpiperazin-1-yl)propan-1-one (6a)] | 24.3

The next lines start with the values.

Row | IC50 [µM] | SMILES
11 | 18.6 | COc1ccc2c(c1)CCCN2CCC(=O)N1CCN(c2cccc(Cl)c2)CC1 [1-(4-(3-chlorophenyl)piperazin-1-yl)-3-(6-methoxy-3,4-dihydroquinolin-1(2H)-yl)propan-1-one (6j)]
12 | 24.9 | COc1ccc2c(c1)CCCN2CCC(=O)N1CCN(c2ccc(Cl)cc2)CC1 [1-(4-(4-chlorophenyl)piperazin-1-yl)-3-(6-methoxy-3,4-dihydroquinolin-1(2H)-yl)propan-1-one (6k)]
13 | > 100 | COc1ccc2c(c1)CCCN2CCC(=O)N1CCN(Cc2ccccc2)CC1 [1-(4-benzylpiperazin-1-yl)-3-(6-methoxy-3,4-dihydroquinolin-1(2H)-yl)propan-1-one (6m)]
14 | 58.2 | COc1cccc(N2CCN(C(=O)CCN3CCCc4cc(OC)ccc43)CC2)c1 [3-(6-methoxy-3,4-dihydroquinolin-1(2H)-yl)-1-(4-(3-methoxyphenyl)piperazin-1-yl)propan-1-one (6e)]
15 | > 100 | COc1ccc(N2CCN(C(=O)CCN3CCCc4cc(OC)ccc43)CC2)cc1 [3-(6-methoxy-3,4-dihydroquinolin-1(2H)-yl)-1-(4-(4-methoxyphenyl)piperazin-1-yl)propan-1-one (6f)]
